The values that follow come from US12365695B2, “Fused ring heteroaryl compounds as RIPK1 inhibitors” (BiSiChem Co., Ltd., priority 2019, dated 2025).

Where only a bound is given, the exact number is not on record here.

For the experiment, the system named is HT-29 cells. Kind of experiment: Cell-based necroptosis assay for RIPK1 activity (cell viability, CCK-8). As to conditions: HT29 (human colon cancer), Z-VAD-FMK 20 μM, human TNFα 10 ng/ml, SM-164 100 nM, 24 h, read-out: Necroptosis inhibition (IC50). The procedure: Human colon carcinoma cell HT-29 (KCLB 30038), BV2 mouse microglial cell (cell was a kind gift from Dr. Nak-Yun Sung, Senior researcher at Korea Prime Pharmacy CO., LTD.) and human microglial cell HMC3 (ATCC® CRL-3304™). HT-29 cell was grown in Roswell Park Memorial Institute (RPMI) 1640, BV2 cell was grown in Dulbecco's Modified Eagle's Medium (DMEM) and HMC3 cell was grown in Minimum Essential Media Eagle (MEM) supplemented with 10% fetal bovine serum and 1% mixture of penicillin and streptomycin (Gibco). Cells were maintained at 37° C. in a humidified 5% CO2 atmosphere.
To measure the activity of RIPK1 inhibitor in necroptotic cells, HT-29 cells were treated by control DMSO, human TNFα (Peprotech, Rocky Hill, USA), SM-164 (Biovision, California, USA) and a pan-caspase inhibitor Z-VAD-FMK (Invivogen, San Diego, USA). Cells were pretreated with Z-VAD-FMK 20 μM. After 30 min, human TNFα 10 ng/ml, SM-164 100 nM and RIPK1 Inhibitor (0.0001, 0.001, 0.01, 0.02, 0.05, 0.1, 1, 10 uM) were treated for 24 h. Cell viability was measured by Cell Counting Kit 8 (CCK-8) (Dong-in, Seoul, Korea).
For `CN1C(=O)[C@@H](NC(=O)n2cc(Cc3ccccc3)cn2)COc2cnccc21` [Example 24, (S)-4-benzyl-N-(1-methyl-2-oxo-1,2,3,4-tetrahydropyrido[3,4-b][1,4]oxazepin-3-yl)-1H-pyrazole-1-carboxamide], the IC50 is below 100 nM.
Next, `O=C1Nc2c(F)cc(F)cc2CCC1NC(=O)n1cc(Cc2ccccc2)cn1` (centres unmarked) [Example 25, 4-benzyl-N-(7,9-difluoro-2-oxo-2,3,4,5-tetrahydro-1H-benzo[b]azepin-3-yl)-1H-pyrazole-1-carboxamide]: below 100 nM; `O=C1Nc2c(F)cc(F)cc2CC[C@@H]1NC(=O)n1cc(Cc2cccc(F)c2)cn1` [Example 26, (S)—N-(7,9-difluoro-2-oxo-2,3,4,5-tetrahydro-1H-benzo[b]azepin-3-yl)-4-(3-fluorobenzyl)-1H-pyrazole-1-carboxamide]: below 10 nM.
On to `CN1C(=O)C(NC(=O)n2cc(Cc3ccccc3)cn2)CCc2cc(F)cc(F)c21` (centres unmarked) [Example 27, 4-benzyl-N-(7,9-difluoro-1-methyl-2-oxo-2,3,4,5-tetrahydro-1H-benzo[b]azepin-3-yl)-1H-pyrazole-1-carboxamide], for which the IC50 was below 10 nM.
`CN1C(=O)C(NC(=O)n2cc(Cc3cccc(F)c3)cn2)CCc2cc(F)cc(F)c21` (centres unmarked) [Example 28, N-(7,9-difluoro-1-methyl-2-oxo-2,3,4,5-tetrahydro-1H-benzo[b]azepin-3-yl)-4-(3-fluorobenzyl)-1H-pyrazole-1-carboxamide]: the IC50 is below 10 nM.
In the case of `O=C1Nc2nccnc2CCC1NC(=O)n1cc(Cc2ccccc2)cn1` (centres unmarked) [Example 29, 4-benzyl-N-(6-oxo-6,7,8,9-tetrahydro-5H-pyrazino[2,3-b]azepin-7-yl)-1H-pyrazole-1-carboxamide], the IC50 is above 100 nM.
Next, `O=C1Nc2nccnc2CCC1NC(=O)n1cc(Cc2cccc(F)c2)cn1` (centres unmarked) [Example 30, 4-(3-fluorobenzyl)-N-(6-oxo-6,7,8,9-tetrahydro-5H-pyrazino[2,3-b]azepin-7-yl)-1H-pyrazole-1-carboxamide]: above 100 nM; `CN1C(=O)C(NC(=O)n2cc(Cc3ccccc3)cn2)CCc2nccnc21` (centres unmarked) [Example 31, 4-benzyl-N-(5-methyl-6-oxo-6,7,8,9-tetrahydro-5H-pyrazino[2,3-b]azepin-7-yl)-1H-pyrazole-1-carboxamide]: above 100 nM.
With `CN1C(=O)[C@@H](NC(=O)n2cc(Cc3ccccc3)cn2)COc2ccnc(F)c21` [Example 32, (S)-4-benzyl-N-(6-fluoro-5-methyl-4-oxo-2,3,4,5-tetrahydropyrido[4,3-b][1,4]oxazepin-3-yl)-1H-pyrazole-1-carboxamide], the IC50 was below 10 nM.
As for `CN1C(=O)[C@@H](NC(=O)n2cc(Cc3cccc(F)c3)cn2)COc2ccnc(F)c21` [Example 33, (S)—N-(6-fluoro-5-methyl-4-oxo-2,3,4,5-tetrahydropyrido[4,3-b][1,4]oxazepin-3-yl)-4-(3-fluorobenzyl)-1H-pyrazole-1-carboxamide], the 50% inhibitory concentration (IC50) is below 100 nM.
Take `CN1C(=O)[C@@H](NC(=O)n2cc(Cc3ccccc3)cn2)COc2cc(F)ncc21` [Example 34, (S)-4-benzyl-N-(8-fluoro-5-methyl-4-oxo-2,3,4,5-tetrahydropyrido[4,3-b][1,4]oxazepin-3-yl)-1H-pyrazole-1-carboxamide]: the IC50 was below 10 nM.
For the compound `CN1C(=O)[C@@H](NC(=O)n2cc(Cc3cccc(F)c3)cn2)COc2cc(F)ncc21` [Example 35, (S)—N-(8-fluoro-5-methyl-4-oxo-2,3,4,5-tetrahydropyrido[4,3-b][1,4]oxazepin-3-yl)-4-(3-fluorobenzyl)-1H-pyrazole-1-carboxamide], the concentration for half-maximal inhibition (IC50) was below 10 nM.
Regarding `CN1C(=O)[C@@H](NC(=O)n2cc(Cc3ccccc3)cn2)COc2cc(Cl)ncc21` [Example 36, (S)-4-benzyl-N-(8-chloro-5-methyl-4-oxo-2,3,4,5-tetrahydropyrido[4,3-b][1,4]oxazepin-3-yl)-1H-pyrazole-1-carboxamide], the IC50 was below 10 nM.
On to `Cc1cc2c(cn1)N(C)C(=O)[C@@H](NC(=O)n1cc(Cc3ccccc3)cn1)CO2` [Example 37, (S)-4-benzyl-N-(5,8-dimethyl-4-oxo-2,3,4,5-tetrahydropyrido[4,3-b][1,4]oxazepin-3-yl)-1H-pyrazole-1-carboxamide], for which the IC50 was below 10 nM.

In general, IC50 refers to the concentration at which inhibition is half-maximal.
